Broadly, the MIC is the smallest concentration in the dilution series that meets the test's criterion for growth inhibition.

The values below come from patent US20260182568A1, “DISINFECTANT AND PRESERVATIVE COMPOSITIONS” (BJBIOCHEM CO., LTD., priority 2023, published 2026).

In brackets after ≈: the same amount, converted by molar mass.

One assay relates to Escherichia coli. Briefly: Disk diffusion antibacterial test. It is filed as cell-based. For orientation: A growth-free zone around the sample is the usual read-out of agar diffusion tests.
A further assay deals with Staphylococcus aureus. The assay is described as follows: Disk diffusion antibacterial test. The format is cell-based.
The subject of another assay is Pseudomonas aeruginosa. Briefly: Disk diffusion antibacterial test. It is filed as cell-based.
Another assay deals with Aspergillus brasiliensis. The assay is described as follows: Disk diffusion antibacterial test. It is filed as cell-based.
In the next assay the test system is Candida albicans. The assay is described as follows: Disk diffusion antibacterial test. It is filed as cell-based.
In a further assay the test system is Malassezia furfur. The assay is described as follows: Sterilizing power (broth dilution MIC) of anti-dandruff hair care (antifungal) compositions.
The subject of the next assay is Malassezia restricta. The assay is described as above.
The next assay deals with Malassezia globosa. The description is as above.
A further assay relates to E. coli. The assay is described as follows: Broth dilution MIC test of antimicrobial and preservative compositions. As to conditions: % only in method b353. It is filed as cell-based, Escherichia coli. As to the method: (§1) C. albicans was inoculated into Sabouraud dextrose broth and cultured at 25° C. for 24 hours. […] The liquid media used for E. coli, S. aureus, and P. aeruginosa (bacteria) were tryptic soy broth, and the liquid media used for C. albicans, and A. brasiliensis (fungi) were Sabouraud dextrose broth.

The test system of the next assay is S. aureus. Described as above. The format is cell-based, Staphylococcus aureus. The conditions noted are these: % only in method b353. As to the method:
as §1

The test system of another assay is P. aeruginosa. The description is as above. As to conditions: % only in method b353. It is filed as cell-based, Pseudomonas aeruginosa. Here is the method:
as §1

The next assay deals with A. brasiliensis. The assay is described as above. The conditions noted are these: % only in method b353. It is filed as cell-based, Aspergillus brasiliensis. As to the method:
as §1

In the next assay the test system is C. albicans. The assay is described as above. It is filed as cell-based, Candida albicans. The conditions noted are these: % only in method b353. Here is the method: as §1
Setting [1] is: comparison over mixing ratios of Formula 1 with PO, ZPT or CB.
Setting [2] is: Test A (Formula 1 / Formula 2), Tables 2-3.
Setting [3] is: Test B (Formula 1 / Formula 3), Tables 16-17.
Setting [4] is: Formula 1 mixed with climbazole (CB) at mixing ratio (%), broth dilution.
Where [5] appears, read: Formula 1 mixed with zinc pyrithione (ZPT) at mixing ratio (%), broth dilution.

As for `CCCCCCCCCCCCN(CC(O)CO)CC(O)CO` (stereo not drawn) [3,3′-(dodecylimino)bispropane-1,2-diol], the “clear zone where strain growth was inhibited, E. coli” value in the assay with Escherichia coli (50 μl on disk, 1st repetition) stood at 2.5 mm; in the assay with Escherichia coli (50 μl on disk, 2nd repetition), 2.5 mm; with Escherichia coli (50 μl on disk, 3rd repetition) it was 3 mm; in the assay with Escherichia coli (Mean of three repetitions), 2.6 mm. Moreover, the “clear zone where strain growth was inhibited, S. aureus” value in the assay with Staphylococcus aureus (50 μl on disk, 1st repetition) is given as 2 mm; in the assay on Staphylococcus aureus (50 μl on disk, 2nd repetition), 3 mm; in the assay with Staphylococcus aureus (50 μl on disk, 3rd repetition), 2.5 mm; in the assay on Staphylococcus aureus (Mean of three repetitions) it was 2.5 mm. The “clear zone where strain growth was inhibited, P. aeruginosa” value in the assay with Pseudomonas aeruginosa (50 μl on disk, 1st repetition) was 1 mm; in the assay with Pseudomonas aeruginosa (50 μl on disk, 2nd repetition) it was 1.5 mm; in the assay with Pseudomonas aeruginosa (50 μl on disk, 3rd repetition), 1 mm; in the assay on Pseudomonas aeruginosa (Mean of three repetitions) it was 1.2 mm. The “clear zone where strain growth was inhibited, A. brasiliensis” value is listed as 1.5 mm with Aspergillus brasiliensis (50 μl on disk, 1st repetition); 2 mm in the assay on Aspergillus brasiliensis (50 μl on disk, 2nd repetition); 2 mm with Aspergillus brasiliensis (50 μl on disk, 3rd repetition); 1.8 mm in the assay on Aspergillus brasiliensis (Mean of three repetitions). Further, the “clear zone where strain growth was inhibited, C. albicans” value was determined as 5 mm in the assay on Candida albicans (50 μl on disk, 1st repetition); 5 mm in the assay on Candida albicans (50 μl on disk, 2nd repetition); 6 mm in the assay on Candida albicans (50 μl on disk, 3rd repetition); 5.3 mm in the assay on Candida albicans (Mean of three repetitions). Also, in the assay on Malassezia furfur (setting [1]), the “sterilizing effect against Malassezia furfur (in words)” value is listed as “lowest sterilizing effect”. Further, the “sterilizing effect against Malassezia restricta (in words)” value in the assay with Malassezia restricta (setting [1]) is “lowest sterilizing effect”. The “sterilizing effect against Malassezia globosa (in words)” value with Malassezia globosa (setting [1]) was “lowest sterilizing effect”.

Take `CCCCCCCCCCCCN(CC(O)CO)CC(O)CO` (stereo not drawn) [Comparative Example1, 3,3′-(dodecylimino)bispropane-1,2-diol]: the “minimum inhibitory concentration (MIC), E. coli” value in the assay with E. coli (setting [2]) and with E. coli (setting [3]) was 0.1% in each case. Further, the “minimum inhibitory concentration (MIC), S. Aureus” value in the assay with S. aureus (setting [2]) and in the assay with S. aureus (setting [3]) was 0.1% throughout. For the same compound, the “minimum inhibitory concentration (MIC), P. Aeruginosa” value in the assay on P. aeruginosa (setting [2]) and in the assay with P. aeruginosa (setting [3]) was 0.25% throughout. In addition, the “minimum inhibitory concentration (MIC), A. brasiliensis” value with A. brasiliensis (setting [2]) and in the assay on A. brasiliensis (setting [3]) was 0.1% each time. In addition, the “minimum inhibitory concentration (MIC), C. albicans” value with C. albicans (setting [2]) and with C. albicans (setting [3]) was 0.05% each time.

Take `CC(C)(C)C(=O)C(Oc1ccc(Cl)cc1)n1ccnc1` (stereo not drawn) [climbazole]: the MIC with Malassezia furfur (setting [4]) is 20 µg/mL; with Malassezia restricta (setting [4]) it was 4 µg/mL; with Malassezia globosa (setting [4]), 1 µg/mL.

On to `Cc1cc(CC(C)CC(C)(C)C)n(O)c(=O)c1` (stereo not drawn) [piroctone olamine], for which the MIC was found to be 30 µg/mL (≈ 126 µM) against Malassezia furfur (Malassezia furfur), 18 µg/mL (≈ 75.8 µM) against Malassezia restricta (Malassezia restricta) and 4 µg/mL (≈ 16.9 µM) with Malassezia globosa (Malassezia globosa).

Regarding zinc pyrithione, the MIC in the assay on Malassezia furfur (setting [5]) is 7 µg/mL; in the assay on Malassezia restricta (setting [5]), 4 µg/mL; in the assay on Malassezia globosa (setting [5]) it was 1 µg/mL.
